Literature values in patent US7364877B2, “Polynucleotides encoding disorazole polyketide synthase polypeptides” (Kosan Biosciences, Inc., priority 2002, dated 2008).

Tests used:
mammalian cell = conditions: mammalian cells
[1] = test system: filamentous fungi belonging to the Ascomycetes, Basidiomycetes, Zygomycetes, Oomycetes, and Deuteromycetes families; conditions: including filamentous fungi

## C/C=C/[C@H](O)C(C)(C)[C@@H]1C\C=C/C=C\C=C\[C@H](OC)Cc2nc(co2)C(=O)O[C@H](C(C)(C)[C@@H](O)/C=C/C)C/C=C\[C@H]2O[C@H]2/C=C/C=C\c2nc(co2)C(=O)O1 [Disorazole A, disorazole A]
Mammalian cell
  mammalian cell cytotoxic activity (MIC): 0.003 to 0.03 ng/mL
[1]
  activity against different fungi (MIC): 100 to 1000 ng/mL
yeast
  activity against yeast: not highly active
bacteria
  activity against bacteria: not highly active
